Measurements taken from BigSolDB 2.1.

CCOc1cccc(C=O)c1O
solubility (mole fraction)
Conditions	278.15 K	283.15 K	288.15 K	293.15 K	298.15 K	303.15 K	308.15 K	313.15 K
in acetone	0.155	0.217	0.272	0.325	0.384	0.446	0.523	0.605
in acetonitrile	0.104	0.154	0.206	0.254	0.303	0.352	0.415	0.498
in ethanol	0.0153	0.0195	0.0287	0.0433	0.0662	0.102	0.145	0.214
in ethyl acetate	0.134	0.174	0.209	0.25	0.294	0.344	0.403	0.497
in isopropanol	0.0095	0.0143	0.0197	0.0284	0.0437	0.0642	0.0925	0.151
in methanol	0.0196	0.0355	0.0567	0.0786	0.132	0.211	0.304	0.434
in methyl acetate	0.137	0.185	0.227	0.281	0.335	0.388	0.475	0.563
in n-butanol	0.0163	0.0206	0.0287	0.0398	0.0566	0.0795	0.116	0.164
in n-butyl acetate	0.0985	0.125	0.158	0.188	0.237	0.281	0.334	0.409
in n-propanol	0.0145	0.0198	0.0262	0.0395	0.0576	0.0824	0.124	0.176
in n-propyl acetate	0.105	0.136	0.164	0.205	0.248	0.312	0.374	0.464
in water	5.24e-05	6.55e-05	7.32e-05	8.68e-05	0.000106	0.000125	0.000155	0.000191
